pEC50: −log10 of the molar value. Where a name gives a salt, the structure may show the parent alone.
Biological target: T1, hNPRA (Homo sapiens, UniProt P16066)
T1 construct: expressed in transfected cells
T1 sequence (P16066 33-1061): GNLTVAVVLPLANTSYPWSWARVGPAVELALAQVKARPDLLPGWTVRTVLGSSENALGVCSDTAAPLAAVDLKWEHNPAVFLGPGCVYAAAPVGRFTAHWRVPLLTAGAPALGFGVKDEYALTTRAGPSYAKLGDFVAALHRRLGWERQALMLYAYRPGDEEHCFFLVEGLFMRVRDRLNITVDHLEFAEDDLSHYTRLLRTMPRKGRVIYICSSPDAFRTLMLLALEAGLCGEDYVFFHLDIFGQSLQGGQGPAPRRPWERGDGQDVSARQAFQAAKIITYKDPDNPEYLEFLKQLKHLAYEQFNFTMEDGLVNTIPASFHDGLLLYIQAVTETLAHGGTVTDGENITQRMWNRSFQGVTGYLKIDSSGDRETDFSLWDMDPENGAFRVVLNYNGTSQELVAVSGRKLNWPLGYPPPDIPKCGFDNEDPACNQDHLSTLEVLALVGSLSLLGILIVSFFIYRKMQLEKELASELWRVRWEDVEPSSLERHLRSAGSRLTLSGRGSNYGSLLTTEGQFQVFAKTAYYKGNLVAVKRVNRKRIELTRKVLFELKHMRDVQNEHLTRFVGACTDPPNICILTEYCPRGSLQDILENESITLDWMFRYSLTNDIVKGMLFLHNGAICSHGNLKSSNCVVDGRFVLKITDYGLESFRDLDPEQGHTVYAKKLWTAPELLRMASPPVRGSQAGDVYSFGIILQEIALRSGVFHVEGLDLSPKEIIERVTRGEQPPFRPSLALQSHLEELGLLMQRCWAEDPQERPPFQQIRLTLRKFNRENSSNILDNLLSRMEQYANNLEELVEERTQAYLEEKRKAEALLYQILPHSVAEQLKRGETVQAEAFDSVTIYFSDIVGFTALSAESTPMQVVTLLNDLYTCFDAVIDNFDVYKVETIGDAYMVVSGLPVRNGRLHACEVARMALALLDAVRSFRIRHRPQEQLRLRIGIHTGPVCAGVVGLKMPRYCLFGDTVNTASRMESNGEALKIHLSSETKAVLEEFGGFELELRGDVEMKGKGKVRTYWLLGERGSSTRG
Experiment: NPRA Functional Cell Assay (cGMP HTRF, NPRA HEK JumpIn stable cells)
Assay type: cell-based
Conditions: cGMP production, 1 hour at 37° C., 10-point dose response
How it was run: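 cGMP HTRF read-out after 1 hour compound treatment at 37° C. of human NPRA-expressing HEK JumpIn cells, 1500 cells/well, in buffer with phosphodiesterase inhibitors IBMX and RO20 (100 uM each). Signal converted to [cGMP] by calibration curve; EC50s fitted by 4-parameter logistic; 50 nM h-ANP as positive response.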

Compound	pEC50
CC(C)(C)[C@H]1CCc2nc3sc(C(=O)N[C@H](CCN4CCCC(O)C4)c4ccccc4)cc3cc2C1 (stereo partly drawn) [Example 251, (6S)-6-tert-butyl-N-[(1R)-3-(3-hydroxypiperidin-1-yl)-1-phenylpropyl]-5,6,7,8-tetrahydrothieno[2,3-b]quinoline-2-carboxamide]	6.20
CCN(CC)CCC(NC(=O)c1cc2cc3c(nc2s1)CC[C@H](C(C)(C)C)C3)c1ccccc1 (stereo partly drawn) [Example 244, (6S)-6-tert-butyl-N-[3-(diethylamino)-1-phenylpropyl]-5,6,7,8-tetrahydrothieno[2,3-b]quinoline-2-carboxamide]	5.66
CC(C)(C)[C@H]1CCc2nc3sc(C(=O)N[C@H](CCN4CCC(C(=O)O)CC4)c4ccc(-c5cnc(O)c(F)c5)cc4)nc3cc2C1 [Example 224, sodium 1-((R)-3-((S)-7-(tert-butyl)-5,6,7,8-tetrahydrothiazolo[5,4-b]quinoline-2-carboxamido)-3-(4-(5-fluoro-6-hydroxypyridin-3-yl)phenyl)propyl)piperidine-4-carboxylate]	6.70
CC(C)(C)[C@H]1CCc2nc3sc(C(=O)N[C@H](CCN4CCC(O)CC4)c4ccc(-c5cn[nH]c5)nc4)nc3cc2C1 (racemic) [Example 196, rac-(7S)-7-tert-butyl-N-[rac-(1R)-3-(4-hydroxy-1-piperidyl)-1-[6-(1H-pyrazol-4-yl)-3-pyridyl]propyl]-5,6,7,8-tetrahydrothiazolo[5,4-b]quinoline-2-carboxamide]	6.52
O=C1CN(c2ccc([C@@H](CCN3CCC(O)CC3)NC(=O)c3nc4cc5c(nc4s3)CC[C@H](C3(C(F)(F)F)CC3)C5)cn2)C(=O)N1 [Example 221, (S)-N-((R)-1-(6-(2,4-dioxoimidazolidin-1-yl)pyridin-3-yl)-3-(4-hydroxypiperidin-1-yl)propyl)-7-(1-(trifluoromethyl)cyclopropyl)-5,6,7,8-tetrahydrothiazolo[5,4-b]quinoline-2-carboxamide]	5.94
CC(C)(C)[C@H]1CCc2nc3sc(C(=O)N[C@H](CCN4CC[C@@H](C(=O)O)[C@@H](F)C4)c4ccc(-c5cnc(O)c(F)c5)cc4)nc3cc2C1 (racemic) [Example 201, rac-(3R,4S)-3-fluoro-1-[rac-(3R)-3-[4-(5-fluoro-6-hydroxy-3-pyridyl)phenyl]-3-[[rac-(7S)-7-tert-butyl-5,6,7,8-tetrahydrothiazolo[5,4-b]quinoline-2-carbonyl]amino]propyl]piperidin-1-ium-4-carboxylic acid; formate]	6.35
CC(C)(C)[C@H]1CCc2nc3sc(C(=O)N[C@H](CCN4CCC(n5cnnc5)CC4)c4ccc(-c5ccc(=O)[nH]c5)cc4)cc3cc2C1 (racemic) [Example 29, rac-(6S)-6-tert-butyl-N-[rac-(1R)-1-[4-(6-oxo-1H-pyridin-3-yl)phenyl]-3-[4-(1,2,4-triazol-4-yl)piperidin-1-ium-1-yl]propyl]-5,6,7,8-tetrahydrothieno[2,3-b]quinoline-2-carboxamide;formate]	6.35
CN(C)[C@H]1CN(CC[C@@H](NC(=O)c2cc3cc4c(nc3s2)CC[C@H](C(C)(C)C)C4)c2ccc(-c3ccc(=O)[nH]c3)cc2)C[C@@H]1O (racemic) [Example 70, rac-(6S)-6-tert-butyl-N-[rac-(1R)-1-[4-(6-oxo-1H-pyridin-3-yl)phenyl]-3-[rac-(3S,4S)-3-(dimethylamino)-4-hydroxy-pyrrolidin-1-ium-1-yl]propyl]-5,6,7,8-tetrahydrothieno[2,3-b]quinoline-2-carboxamide;formate]	5.71
CC(C)(C)[C@H]1CCc2nc3sc(C(=O)N[C@H](CCN4CCC(O)CC4)c4ccc(-c5cc(=O)[nH]c(=O)[nH]5)cc4)nc3cc2C1 (racemic) [Example 182, rac-(7S)-7-tert-butyl-N-[rac-(1R)-1-[4-(2,4-dioxo-1H-pyrimidin-6-yl)phenyl]-3-(4-hydroxy-1-piperidyl)propyl]-5,6,7,8-tetrahydrothiazolo[5,4-b]quinoline-2-carboxamide]	5.79
CC(C)(C)[C@H]1CCc2nc3sc(C(=O)N[C@H](CCNC4CCOCC4)c4cccc(NS(C)(=O)=O)c4)cc3cc2C1 (racemic) [Example 10, ammonium; methylsulfonyl-[3-[rac-(1R)-1-[[rac-(6S)-6-tert-butyl-5,6,7,8-tetrahydrothieno[2,3-b]quinoline-2-carbonyl]amino]-3-(tetrahydro-pyran-4-ylamino)propyl]phenyl]azanide]	6.15
CC(C)(C)[C@H]1CCc2nc3sc(C(=O)N[C@H](CCN[C@H]4C[C@H](O)C4)c4ccccc4)cc3cc2C1 [Example 260, (6S)-6-tert-butyl-N-{(1R)-3-[(trans-3-hydroxycyclobutyl)amino]-1-phenylpropyl}-5,6,7,8-tetrahydrothieno[2,3-b]quinoline-2-carboxamide]	5.70
CC(C)[C@]1(F)CCc2nc3sc(C(=O)N[C@H](CCN4CCC(O)CC4)c4ccc(N5CC(=O)NC5=O)nc4)nc3cc2C1 [Example 219, (S)-N-((R)-1-(6-(2,4-dioxoimidazolidin-1-yl)pyridin-3-yl)-3-(4-hydroxypiperidin-1-yl)propyl)-7-fluoro-7-isopropyl-5,6,7,8-tetrahydrothiazolo[5,4-b]quinoline-2-carboxamide]	6.42

Other lines, results leading:

pEC50	Compound
6.16	CCS(=O)(=O)c1ccc([C@@H](CCN2CCC(O)CC2)NC(=O)c2nc3cc4c(nc3s2)CC[C@H](C(C)(C)C)C4)cn1 [Example 227, (S)-7-(tert-butyl)-N-((R)-1-(6-(ethylsulfonyl)pyridin-3-yl)-3-(4-hydroxypiperidin-1-yl)propyl)-5,6,7,8-tetrahydrothiazolo[5,4-b]quinoline-2-carboxamide]
6.05	CN1CC(NC(=O)c2cccc([C@@H](CCN3CCC(O)CC3)NC(=O)c3nc4cc5c(nc4s3)CC[C@H](C(C)(C)C)C5)c2)CCC1=O (mixture of isomers) [Example 158, rac-(7S)-7-tert-butyl-N-[rac-(1R)-3-(4-hydroxy-1-piperidyl)-1-[3-[(1-methyl-6-oxo-3-piperidyl)carbamoyl]phenyl]propyl]-5,6,7,8-tetrahydrothiazolo[5,4-b]quinoline-2-carboxamide]
6.28	CN1CC(NC(=O)c2cccc([C@@H](CCN3CCC[C@H]3CC(=O)O)NC(=O)c3nc4cc5c(nc4s3)CC[C@H](C(C)(C)C)C5)c2)C1 (racemic) [Example 106, 2-[rac-(2S)-1-[rac-(3R)-3-[3-[(1-methylazetidin-1-ium-3-yl)carbamoyl]phenyl]-3-[rac-(7S)-7-tert-butyl-5,6,7,8-tetrahydrothiazolo[5,4-b]quinoline-2-carbonyl]amino]propyl] pyrrolidin-2-yl]acetic acid; 2,2,2-trifluoroacetate]
5.70	CN(C)S(=O)(=O)Nc1cccc([C@@H](CCN2CCC(O)CC2)NC(=O)c2nc3cc4c(nc3s2)CC[C@H](C(C)(C)C)C4)c1 (mixture of isomers) [Example 216, (7S)-7-tert-butyl-N-[rac-(1R)-1-[3-(dimethylsulfamoylamino)phenyl]-3-(4-hydroxypiperidin-1-ium-1-yl)propyl]-5,6,7,8-tetrahydrothiazolo[5,4-b]quinoline-2-carboxamide; formate]
6.12	CN1CC(NC(=O)c2cccc([C@@H](CCN3CCC(C(=O)O)C3)NC(=O)c3nc4cc5c(nc4s3)CC[C@H](C(C)(C)C)C5)c2)C1 (mixture of isomers) [Example 112, rac-(3R)-1-[rac-(3R)-3-[3-[(1-methylazetidin-1-ium-3-yl)carbamoyl]phenyl]-3-[rac-(7S)-7-tert-butyl-5,6,7,8-tetrahydrothiazolo[5,4-b]quinoline-2-carbonyl]amino]propyl]pyrrolidine-3-carboxylic acid; 2,2,2-trifluoroacetate]
6.18	CN1CC(NC(=O)c2cccc([C@@H](CCN3CCC(O)CC3)NC(=O)c3nc4cc5c(nc4s3)CC[C@H](C(C)(C)C)C5)c2)CC1=O (mixture of isomers) [Example 149, rac-(7S)-7-tert-butyl-N-[rac-(1R)-3-(4-hydroxy-1-piperidyl)-1-[3-[(1-methyl-5-oxo-pyrrolidin-3-yl)carbamoyl]phenyl]propyl]-5,6,7,8-tetrahydrothiazolo[5,4-b]quinoline-2-carboxamide]

Reference: patent US12440496B2, “Natriuretic peptide receptor a agonists useful for the treatment of cardiometabolic diseases, kidney disease and diabetes” (Merck Sharp & Dohme LLC, priority 2019, dated 2025)
